Reference: patent US6677310B1, “Ring-expanded nucleosides and nucleotides” (Nabi, priority 1999, dated 2004)

Experiments:
Format in all cases: cell-based, human
CCRF-CEM = assay: SRB anti-cancer assay, Leukemia; details: 48 h
SR = assay: SRB anti-cancer assay, Leukemia; details: 48 h
A549/ATCC = A549/ATCC (Non-Small Cell Lung Cancer), 48 h
HOP-62 = HOP-62 (Non-Small Cell Lung Cancer), 48 h
NCI-H226 = NCI-H226 (Non-Small Cell Lung Cancer), 48 h
NCI-H460 = NCI-H460 (Non-Small Cell Lung Cancer), 48 h
HCT-116 = assay: SRB anti-cancer assay, Colon Cancer; details: HCT-116 (Colon Cancer), 48 h
KM12 = assay: SRB anti-cancer assay, Colon Cancer; details: 48 h
SW-620 = assay: SRB anti-cancer assay, Colon Cancer; details: SW-620 (Colon Cancer), 48 h
SF-268 = assay: SRB anti-cancer assay, CNS Cancer; details: SF-268 (CNS Cancer), 48 h
SNB-75 = assay: SRB anti-cancer assay, CNS Cancer; details: SNB-75 (CNS Cancer), 48 h
MALME-3M = assay: SRB anti-cancer assay, Melanoma; details: MALME-3M (Melanoma), 48 h
M14 = assay: SRB anti-cancer assay, Melanoma; details: 48 h
UACC-257 = assay: SRB anti-cancer assay, Melanoma; details: UACC-257 (Melanoma), 48 h
UACC-62 = assay: SRB anti-cancer assay, Melanoma; details: UACC-62 (Melanoma), 48 h
OVCAR-3 = assay: SRB anti-cancer assay, Ovarian Cancer; details: OVCAR-3 (Ovarian Cancer), 48 h
OVCAR-4 = assay: SRB anti-cancer assay, Ovarian Cancer; details: OVCAR-4 (Ovarian Cancer), 48 h
OVCAR-5 = assay: SRB anti-cancer assay, Ovarian Cancer; details: OVCAR-5 (Ovarian Cancer), 48 h
OVCAR-8 = assay: SRB anti-cancer assay, Ovarian Cancer; details: OVCAR-8 (Ovarian Cancer), 48 h
786-0 = assay: SRB anti-cancer assay, Renal Cancer; details: 786-0 (Renal Cancer), 48 h
A498 = assay: SRB anti-cancer assay, Renal Cancer; details: 48 h
ACHN = assay: SRB anti-cancer assay, Renal Cancer; details: 48 h
CAKI-1 = assay: SRB anti-cancer assay, Renal Cancer; details: CAKI-1 (Renal Cancer), 48 h
SN12C = assay: SRB anti-cancer assay, Renal Cancer; details: 48 h
UO-31 = assay: SRB anti-cancer assay, Renal Cancer; details: UO-31 (Renal Cancer), 48 h
DU-145 = assay: SRB anti-cancer assay, Prostate Cancer; details: DU-145 (Prostate Cancer), 48 h
MDA-MB- 231/ATCC = assay: SRB anti-cancer assay, Breast Cancer; details: MDA-MB- 231/ATCC (Breast Cancer), 48 h
MDA-MB-435 = assay: SRB anti-cancer assay, Breast Cancer; details: MDA-MB-435 (Breast Cancer), 48 h
MDA-N = assay: SRB anti-cancer assay, Breast Cancer; details: 48 h
[1] = read-out: LC50 (the source's name)

## N=c1[nH]c(=O)c2ncn([C@@H]3O[C@H](CO)[C@@H](O)[C@H]3O)c2c(=O)[nH]1 [Compound 14-1, 6-Imino-6H-1-β-D-ribofuranosyl-4,5,7,8-tetrahydroimidazo[4,5-e][1,3]diazepine-4,8-dione]
CCRF-CEM
  GI50: > 100 µM
  TGI: >100 µM
CCRF-CEM; [1]
  CC50: > 100 µM
SR
  GI50: > 100 µM
  LC50 (concentration killing 50% of cells): > 100 µM
  TGI: >100 µM
A549/ATCC
  GI50: > 100 µM
  TGI: >100 µM
A549/ATCC; [1]
  CC50: > 100 µM
HOP-62
  GI50: > 100 µM
  LC50 (concentration for 50% net cell kill): > 100 µM
  TGI: >100 µM
NCI-H226
  GI50: > 100 µM
  TGI: >100 µM
NCI-H226; [1]
  CC50: > 100 µM
NCI-H460
  GI50: > 100 µM
  TGI: >100 µM
NCI-H460; [1]
  CC50: > 100 µM
HCT-116
  GI50: > 100 µM
  TGI: >100 µM
HCT-116; [1]
  CC50: > 100 µM
KM12
  GI50: > 100 µM
  LC50: > 100 µM
  TGI: >100 µM
SW-620
  GI50: > 100 µM
  TGI: >100 µM
SW-620; [1]
  CC50: > 100 µM
SF-268
  GI50: > 100 µM
  TGI: >100 µM
SF-268; [1]
  CC50: > 100 µM
SNB-75
  LC50 (concentration killing 50% of cells): > 100 µM
  TGI: >100 µM
MALME-3M
  GI50: > 100 µM
  LC50: > 100 µM
  TGI: >100 µM
M14
  GI50: > 100 µM
  TGI: >100 µM
M14; [1]
  CC50: > 100 µM
UACC-257
  GI50: > 100 µM
  TGI: >100 µM
UACC-257; [1]
  CC50: > 100 µM
UACC-62
  GI50: > 100 µM
  TGI: >100 µM
UACC-62; [1]
  CC50: > 100 µM
OVCAR-3
  GI50: > 100 µM
  TGI: >100 µM
OVCAR-3; [1]
  CC50: > 100 µM
OVCAR-4
  GI50: > 100 µM
  TGI: >100 µM
OVCAR-4; [1]
  CC50: > 100 µM
OVCAR-5
  GI50: > 100 µM
  TGI: >100 µM
OVCAR-5; [1]
  CC50: > 100 µM
OVCAR-8
  GI50: > 100 µM
  LC50 (50% lethal concentration): > 100 µM
  TGI: >100 µM
786-0
  GI50: > 100 µM
  TGI: >100 µM
786-0; [1]
  CC50: > 100 µM
A498
  GI50: > 100 µM
  TGI: >100 µM
A498; [1]
  CC50: > 100 µM
ACHN
  GI50: > 100 µM
  TGI: >100 µM
ACHN; [1]
  CC50: > 100 µM
CAKI-1
  GI50: > 100 µM
  TGI: >100 µM
CAKI-1; [1]
  CC50: > 100 µM
SN12C
  GI50: > 100 µM
  TGI: >100 µM
SN12C; [1]
  CC50: > 100 µM
UO-31
  GI50: > 100 µM
  TGI: >100 µM
UO-31; [1]
  CC50: > 100 µM
DU-145
  GI50: > 100 µM
  TGI: >100 µM
DU-145; [1]
  CC50: > 100 µM
MDA-MB- 231/ATCC
  TGI: >100 µM
MDA-MB- 231/ATCC; [1]
  CC50: > 100 µM
MDA-MB-435
  GI50: > 100 µM
  TGI: >100 µM
MDA-MB-435; [1]
  CC50: > 100 µM
MDA-N
  GI50: > 100 µM
  TGI: >100 µM
MDA-N; [1]
  CC50: > 100 µM
